US20050261265A1, “MODULATING CELLULAR SENESCENCE BY AMPHIPHYSIN-1” (priority 2000, published 2005)
{FL} = fluorescein region

Legend:
human fibroblasts = assay: Senescence-associated β-galactosidase activity staining; type: cell-based; details: for β-galactosidase activity shown from (days after treatment), entry of cellular senescence: fibroblasts PDL 16, 400 μM
Protocol: The fibroblasts subcultured in Exmaple I-1, PDL of which are 16, were placed in culture plate and were kept to arrest cell cycle to G1 phase in incubator (37° C., 5% CO2 and humidified) for a week. The cell cycle arrest was confirmed as follows: Following the fixation of the cells with cold ethanol, the cells were stained for 30 min. at room temperature using PI staining solution (containing 50 μg/ml of Rnase A and 50 μg/ml of propinium iodide in PBS). Thereafter, using FACS (fluorescence-activated cell sorter), the cell cycle was confirmed by observing DNA phenotype, i.e., 2n or 4n.
The fibroblasts arrested in G1 phase were treated with 400 μM H2O2 and then incubated for 3 hrs., followed by washing with 10 ml of PBS. Then, the cells were subcultured at a 1:4 ratio and under normal conditions for cell culure (37° C., 5% CO2 and humidified), cell culture was continuously performed. Following 7 days after the treatment, the cells were determined in terms of senescence using senescence-associated […] activity staining as described in Example III.
The fibroblasts subcultured in Exmaple I-1, PDL of which are 16, were placed in culture plate containing DMEM and were cultured in incubator (37° C., 5% CO2 and humidified) for 14 hrs. Thereafter, the fibroblasts were treated with 400 μM Hydroxyurea and then incubated continuously. The medium was renewed once per 3 days with the addition of fresh 400 μM Hydroxyurea. Following 14 days after the treatment, the cells were determined in terms of senescence using senescence-associated […] activity staining as described in Example III.
A senescence-associated […] activity staining (hereinafter referred to as “SA β-gal activity staining) was performed according to the method of Dimri et al. (Dimri G P et al., Proc. Natl. Acad. Sci., 92:9363(1995)): The semiconfluent fibroblasts were washed twice with 10 ml of PBS and fixed with 2% paraformaldehyde in PBS for 5 min. at room temperature. […]

[1] = tested on: receptor-mediated endocytosis; assay: Internalization of rhodamine-conjugated transferrin in artificially induced senescent cells (confocal microscopy); type: cell-based, human; details: 25 μg/ml rhodamine-conjugated transferrin, FIG. 4
caveolin-1 [2] = assay: Immunostaining of caveolin-1 in old fibroblasts transfected with oligonucleotide; type: cell-based, human; details: old fibroblasts PDL 64; for expression of caveolin-1 in cell (immunostaining): with a lapse of treatment time, FIG. 19
Protocol: (§1) Old human fibroblasts (PDL 64) were placed onto 24 well-plate or dish containing DMEM without FBS and incubated in incubator (37° C., 5% CO2) for 12 hr. After incubation, 1-5 μg of 100 μM antisense oligonucleotides synthesized and Plus reagent (Gibco-BRL) were mixed with 500 μl of DMEM and subsequently reacted for 15 min. at room temperature, and the resulting mixture was well mixed with 500 μl of the mixture containing 12 μl of Lipofectamine (Gibco-BRL) and DMEM, followed by standing the mixture for 15 min. at room temperature in order to form liposome complex. The incubated cells were washed twice with DMEM (no serum) and treated with 1 ml of the liposome complex, followed by incubation for 3 hr at 37° C. To the transfected cells, 1-5 ml of DMEM containing 10% FBS was added and the incubation was subsequently carried out for 24 hr, after which the media was changed with DMEM containing 10% FBS. Following incubation for a given period, immunostaining and western blotting were carried out as follows:
The cells treated with antisense oligonucleotide were fixed with 0.5 ml of 4% paraformaldehyde for 20 min at room temperature and then permeabilized with 0.5 ml of 0.5% Triton X-100 in PBS for 10 min, followed by blocking with 2% BSA (in PBS). The cells were sequentially incubated with anti-caveolin-1 antibody (Transduction Laboratory) overnight at 4° C. and then rhodamine-conjugated secondary antibody (Santa Cruz) for 1 hr at room temperature. For the purpose of visualizing nucleus, DAPI (Molecular Probe) was also added. The observation was performed using confocal microscope (Biorad, #MRC1024).

caveolin-1 [3] = assay: Western blotting of caveolin-1 in cells treated with oligonucleotides; type: cell-based, human; details: old fibroblasts PDL 64
Protocol: Analysis of caveolin expression, in young cells (PDL less than 30), middle cells (PDL 35-45) and old cells (PDL more than 60) of Human fibroblasts or IMR-90 cells, was performed by Western blotting as described in Example V. Monoclonal anti-caveolin-1 antibody, monoclonal anti-caveolin-2 antibody and monoclonal anti-caveolin-3 antibody were purchased from Transduction Laboratories.
as §1, with “follows: […]” for “follows:”

Erk-1/2 = assay: Western blotting of Erk-1/2 activation upon EGF after oligonucleotide transfection; type: cell-based, human; details: old cells; 100 ng/ml EGF; FIG. 20
Protocol: Young cells (PDL less than 30), middle cells (PDL 35-45) and old cells (PDL more than 60) of Human fibroblasts or IMR-90 cells, respectively were stimulated with 100 ng/ml EGF (Gibco-BRL, human, recombinant). After stimulation, western blotting was performed as described in Example V. Monoclonal anti-phospho-Erk-1/2 antibody, polyclonal anti-Erk-1/2 antibody and polyclonal anti-EGFR antibody were purchased from Santa Cruz Biotechnology, Inc. As found in FIG. 13a, in both young and middle-aged cells, Erk-1/2 kinases were phosphorylated (activated) within 5 min, and the resulting activation was sustained for 15 min after EGF stimulation. However, the phosphorylation of Erk-1/2 kinase from old cells was not detected until 15 min had lapsed. The expression level of Erk kinase and EGFR was not changed by the increase of population doubling in Western blot (see FIG. 13b), despite the down-regulation of EGF signaling to Erk kinases.
The old and young fibroblasts were treated with antisense oligonucleotide as described in Example XVII. The EGF stimulation and western blotting were carried out as described in Example XI. FIG. 20 represents the results of this Example.

p-Erk-1/2 = assay: Immunostaining of p-Erk-1/2 translocation to nucleus; type: cell-based, human; details: old cells; EGF; FIG. 22
Protocol: To verify that Erk-1/2 kinase activated in Example XVIII is translocated into nucleus and regulate sequentially the expression of other genes, immunostaining was performed as follows: Young and old fibroblasts were treated with antisense oligonucleotide and EGF as Example XIII. The treated cells were sequentially incubated with anti-p-Erk (phosphorylated-Erk) antibody (New England Biotech) overnight at 4° C. and then FITC-conjugated secondary antibody (Santa Cruz) for 1 hr at room temperature. For the purpose of visualizing nucleus, DAPI (Molecular Probe) was also added. The image of p-Erk-1/2 localization was visualized using confocal microscope (Biorad, #MRC1024), which is found in FIGS. 21 and 22. In FIGS. 21 and 22, arrows indicate translocation of p-Erk-1/2 kinase into nucleus.

caveolin-1 [4] = assay: Western blotting of young cells treated with demethylating agent; type: cell-based, human; details: young fibroblasts PDL 20; 1 μM; FIG. 23b
Protocol: (§2) The induction of cellular senescence was verified by SA β-gal activity staining as Example III. To investigate the expression of related proteins, the treated cells were harvested in different days and western blotting was performed as previously described. In western blotting, anti-p53 antibody, anti-p16 antibody, anti-caveolin-1 antibody and anti-actin antibody were purchased from Santa Cruz Biotechnology, Inc.

p16 = assay: as above; type: cell-based, human; details: young fibroblasts PDL 20; 1 μM; FIG. 23b
Protocol: as §2

Compound | β-galactosidase activity shown from (days after treatment), entry of cellular senescence (human fibroblasts) [days] | function of receptor-mediated endocytosis (internalization of fluorescent transferrin) [1] | cell morphology (caveolin-1 [2]) | expression of caveolin-1 in cell (immunostaining) (caveolin-1 [2]) | Erk-1/2 activation by EGF (Erk-1/2) | p-Erk-1/2 in nucleus (p-Erk-1/2) | further results
NC(=O)NO [hydroxyurea, Hydroxyurea] | 14 to 20 | reduced function of receptor-mediated endocytosis | – | – | – | – | –
5′-tttgcccccaga-3′ (antisense TTTGCCCCCAGA; all phosphorothioate, 5' {FL}, sugars by position and methylation of C not given here) [antisense oligonucleotide] | – | – | enlarged and spread morphology to smaller and spindle morphology | dramatically decreased | highly increased | vice versa | caveolin-1 band (western blotting) (caveolin-1 [3]): weaker band corresponding to caveolin-1
5′-atgtctgggggc-3′ (sense ATGTCTGGGGGC; all phosphorothioate, 5' {FL}, sugars by position and methylation of C not given here) [sense oligonucleotide, sense oligonucleotide for the same region of caveolin-1 mRNA, control] | – | – | did not show such cell-morphology alteration | not changed | no alteration in Erk-1/2 activation | no p-Erk-1/2 in nucleus | –
Nc1ncn([C@H]2C[C@H](O)[C@@H](CO)O2)c(=O)n1 [5-aza-deoxycytidine] | – | – | – | – | – | – | SA β-gal activity staining (induction of cellular senescence) (human fibroblasts; young fibroblasts PDL 20, 1 μM, treated for about 2 weeks, FIG. 23a): senescent cell-like phenomenon; expression of caveolin-1 (caveolin-1 [4]): increased; expression of p16 (p16): increased
OO [H2O2] | 10 | reduced function of receptor-mediated endocytosis | – | – | – | – | –
